Results as given in patent publication US12194024B2, “Pharmaceutical composition of MDM2 inhibitor and use thereof for preventing and/or treating disease” (ASCENTAGE PHARMA (SUZHOU) CO., LTD., priority 2019, dated 2025).

Assays:
[1] = tested on: human OCI-AML-3 AML xenograft tumor; assay: Subcutaneous OCI-AML-3 AML mouse xenograft tumor model; format: in vivo, NOD SCID mice; settings: Compound 2 50 mg/kg orally q2d, Azacitidine 2 mg/kg i.v., Decitabine 1 mg/kg i.v.; for Relative tumor volume (RTV, Mean ± SEM): d15, vehicle 16.5 ± 4.1
Description: For subcutaneous model, OCI-AML-3 cells (1×10^6) are injected subcutaneously into the right side of the abdomen of 6- to 8-week-old mice. About 10 days after the cell inoculation, the mice are randomly divided into groups based on the primary tumor size achieving about 100-150 mm^3 of average tumor volume.
The tumor diameter is measured twice using a vernier caliper each week. The computational formula of the tumor volume (TV) is: TV=a×b^2/2. In the computational formula, a and b represent the length and width of the tumor measurement respectively. The computational formula of the relative tumor volume (RTV) is: RTV=VtN1. In the computational formula, V1 is the tumor volume when being grouped and administered, and Vt is the tumor volume when being measured at a certain day after the administration.
The tumor remission rate (%) is derived by dividing the number of SD (Stable Disease), PR (Partial response) and CR (Complete response) appearing in the tumor bearing mice after treatment by the total number of mice in the group×100%.
The synergistic analysis uses the following formula (reference can be made to Gould S E et al., Translational value of mouse models in oncology drug development, Nature medicine, 2015 21, 431-439): synergistic factor=((A/C)×(B/C))/(AB/C); A=RTV value of the A drug alone group; B=RTV value of the B drug alone group; C=RTV value of the vehicle control group, AB=RTV value of the AB combined group (Clarke R., Issues in experimental design and endpoint analysis in the study of experimental cytotoxic agents in vivo in breast cancer and other models[J], Breast Cancer Research & Treatment, 1997, 46 (2-3):255-278).
For subcutaneous model, OCI-AML-3 cells (1×10^6) are injected subcutaneously into the right side of the abdomen of 6- to 8-week-old mice. About 10 days after the cell inoculation, the mice are randomly divided into groups based on the primary tumor size achieving about 100-150 mm^3 of average tumor volume. Compound 2 is administered alone or in combination (50 mg/kg, is taken orally, every other day for 15 days) and Aza (2 mg/kg, intravenous injection each day for 7 days) or Dec (1 mg/kg, intravenous injection each day for 7 days). The tumor volume is measured twice using a vernier caliper each week and is represented by following formula in mm^3: V=0.5a×b^2; in the formula, a and b are the long diameter and short diameter of the tumor respectively. […] RTV=VtN1; wherein V1 and Vt are the average tumor volume on the first day (day 1) in the treatment, and the average tumor volume of a certain time point (day t) respectively.
Azacitidine is administered following 2 mg/kg, caudal vein injection, qd×7d, drug withdrawal 7 days, then qd×2 day regimens for seven days (corresponding to the number 68 regimen in table 7).

MOLM-13 cells = assay: Expression of proteins in treated MOLM-13 cells; format: cell-based, human; settings: for γ-H2AX expression (DNA damage): MOLM-13 cells
Source text: Therefore, we evaluate the protein changes involving these identified signaling pathways. […] DEC and AZA are low methylation drugs inducing low DNA methylation in cells by inhibiting the function of methyltransferase I (DNMT1). Many studies indicate that DNMT1 forms a complex with UHRF1 and HDAC1 proteins in tumor cells, which binds and inhibits the expression of various […] (such as P16INK4A, P14ARF and P21) promoters, and promotes tumor growth. Cytarabine is a pyrimidine nucleoside analogue, which induces DNA damage, further activates ATM/ATR-P53-P21 signal cascades, inhibits DNA synthesis in cells and interferes with cell proliferation.
Based on above evidences, we further detect the regulating effect of treatment with compound 2 in combination with low methylation drugs DEC and AZA or drug Ara-C on P53, demethylation marker protein DNMT1 and common target protein P21, and the expression of apoptosis marker protein, lytic PARP-1. […] RG-7388 is introduced as the comparison of present experiment. […] DNA damage further activates P53 and P21.
B-actin is used for confirming that the loaded proteins are the same. […] Its results represent three independent results.

[2] = tested on: human MOLM-13 (AML) xenograft tumor; assay: Systemic MOLM-13 AML mouse xenograft model; format: in vivo, NOD SCID mice; settings: Compound 2 30 mg/kg q2d 21 days, Azacitidine 1.5 mg/kg qd seven days
Source text: The comparison among three or more groups uses one-way ANOVA. If the F value has a significant difference, multiple comparisons should be carried out after the ANOVA analysis. All data analysis uses SPSS 18.0. Prism (the sixth version) is used for graphing. Attune N×T flow cytometer (Thermo Fisher Scientific Inc.) is used for analyzing tumor infiltrating lymphocytes. Data acquisition and analysis use Analyst Software 1.6.3 work station (AB sciex, Ontario, Canada). For MOLM-13 systemic model, the death date of the last mouse is used for analyzing the median total survival and generating the Kaplan-Meier curve. Logarithmic rank test and Bonferroni multiple test are used for comparing the survival curves of different treatment groups.
For systemic AML model, six- to eight-week-old female NOD SCID mice are pretreated with cyclophosphamide (150 mg/kg, intraperitoneally) continuously for two days. Then the MOLM-13 systemic AML xenograft model is established by inoculating 1×10^7 cells into the caudal vein intravenously.
For systemic AML model, the six- to eight-week-old female NOD SCID mice are pretreated with cyclophosphamide (150 mg/kg, intraperitoneally) continuously for two days. Then the MOLM-13 systemic AML xenograft model is established by inoculating 1×10^7 cells into the caudal vein intravenously. Cells grow 3 days, then are randomly divided into groups for treatment of a single drug or drugs in combination using a carrier, compound 2 (50 mg/kg, is taken orally each day for 7 days), and Aza (1.5 mg/kg, intravenous injection each day for 7 days). In the treatment process and after the treatment is completed, the mice are monitored for the occurrence of hind leg paresis (HLP) or the abdominal swelling caused by disease progression, and a body weight loss >20%.
A systemic MOLM-13 mouse xenograft model is established, and the anti-leukemia effect of compound 2 following the administration regimen of 80 mg/kg dosage, orally (po), and once every two days (q2d) is evaluated in the model (corresponding to the number 57 regimen in table 7). The experiment has two groups, and 15 animals in each group, in one group, 5 animals are used for the analysis of the proportion of CD45+ AML cells, and the remaining 10 animals are used for recording the living condition of the mice. 18 days after the cell inoculation, according to the experimental regimen, 5 animals are selected randomly from each group, bone marrow and spleen are collected, the proportion of human CD45+ AML cells in bone marrow and spleen is analyzed using flow cytometry to evaluate the disease burden of animals.
Systemic tumor model is established by inoculating MOLM-13 tumor cells through caudal vein, the administration starts on the third day after the cell inoculation, and the day of the administration is defined as the first day. Compound 2 is administered following 30 mg/kg, q2d regimens for 21 days. Azacitidine is administered following 1.5 mg/kg, qd regimens for seven days (corresponding to the number 81 regimen in table 7). […]

[3] = MOLM-13, DEC 100 nM, AZA 3 μM, 48 hours

Nc1ncn([C@H]2C[C@H](O)[C@@H](CO)O2)c(=O)n1 [Decitabine]
T/C value (%) (d15) [1]: 64.9% | Relative tumor volume (RTV, Mean ± SEM) [1]: 10.7 ± 1.7 | expression of DNMT1 (MOLM-13 cells; [3]): almost completely eliminates DNMT1 | γ-H2AX expression (DNA damage) (MOLM-13 cells): increased expression of γ-H2AX

Nc1ccn([C@@H]2O[C@H](CO)[C@@H](O)[C@@H]2O)c(=O)n1 [Cytarabine]
expression of P53 and P21 proteins (MOLM-13 cells; MOLM-13, compound 2 40 nM, RG-7388 40 nM, DEC 100 nM, AZA 3 μM, 48 hours): significant up-regulation effect on P21 | γ-H2AX expression (DNA damage) (MOLM-13 cells): increased expression of γ-H2AX

Nc1ncn([C@@H]2O[C@H](CO)[C@@H](O)[C@H]2O)c(=O)n1 [Azacitidine]
T/C value (%) (d15) [1]: 56.6% | Relative tumor volume (RTV, Mean ± SEM) [1]: 9.3 ± 3.2 | Median survival ([2]; vehicle 16 days): 24 days | Prolonged survival ([2]; versus vehicle): 8 days | expression of DNMT1 (MOLM-13 cells; [3]): almost completely eliminates DNMT1 | γ-H2AX expression (DNA damage) (MOLM-13 cells): increased expression of γ-H2AX
